Results published in ChEMBL document CHEMBL1201862, “PubChem BioAssay data set” (2004).
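How tested: cells in 96-well plates exposed to compound for 48 hours at five concentrations. The concentration for 50% growth inhibition is given as GI50.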 Active and inactive are the calls of the source. Cut-off read from the data, not from the text of the source: active = GI50 up to about 1.1 µM and inactive = higher.

What was measured:
Assay in all cases: NCI-60 cell line screen, 48 h
[1] = system: A498
[2] = system: A549
[3] = system: CAKI-1
[4] = system: CCRF-CEM
[5] = system: COLO 205
[6] = system: DLD-1
[7] = system: DMS-114
[8] = system: DMS-273
[9] = system: HCT-116
[10] = system: HCT-15
[11] = system: HL-60
[12] = system: HOP-18
[13] = system: HOP-62
[14] = system: HOP-92
[15] = system: HT-29
[16] = system: IGROV-1
[17] = system: K562
[18] = system: KM-20L2
[19] = system: KM12
[20] = system: LOX IMVI
[21] = system: M19-MEL
[22] = system: MCF7
[23] = system: MOLT-4
[24] = system: NCI-H226
[25] = system: NCI-H23
[26] = system: NCI-H460
[27] = system: NCI/ADR-RES
[28] = system: OVCAR-3
[29] = system: OVCAR-4
[30] = system: OVCAR-5
[31] = system: OVCAR-8
[32] = system: RPMI-8226
[33] = system: RXF 393
[34] = system: SF-295
[35] = system: SF-539
[36] = system: SK-MEL-28
[37] = system: SK-MEL-2
[38] = system: SK-MEL-5
[39] = system: SK-OV-3
[40] = system: SN12C
[41] = system: SNB-19
[42] = system: SNB-75
[43] = system: SNB-78
[44] = system: SW-620
[45] = system: U-251
[46] = system: UACC-257
[47] = system: UACC-62
[48] = system: UO-31
[49] = system: XF498
[50] = system: 786-0
[51] = system: ACHN
[52] = system: EKVX
[53] = system: HCC 2998
[54] = system: LXFL 529
[55] = system: M14
[56] = system: Malme-3M
[57] = system: NCI-H522
[58] = system: SF-268
[59] = system: TK-10
[60] = system: SR

Measured: GI50

C=C1CC(OC)(C(OC)C(=O)N[C@H]2OCO[C@H]3C2O[C@H](C[C@@H](COC)OC)C(C)(C)C3OC)O[C@H](C)[C@@H]1C (some centres undefined)
0.8 µM: [10]
inactive: [7] 1.22 µM | [12] 2.08 µM | [16] 1.17 µM | [22] 1.4 µM | [24] 1.16 µM | [25] 1.18 µM | [27] 2.78 µM | [30] 1.42 µM | [37] 1.15 µM | [42] 1.21 µM
active: [1] 1.03 µM | [2] 0.693 µM | [3] 0.916 µM | [4] 0.21 µM | [5] 0.805 µM | [6] 0.805 µM | [8] 0.875 µM | [9] 0.624 µM | [11] 0.412 µM | [13] 1.04 µM | [14] 0.521 µM | [15] 0.491 µM | [17] 0.815 µM | [18] 0.931 µM | [19] 0.603 µM | [20] 0.617 µM | [21] 0.778 µM | [23] 0.522 µM | [26] 0.746 µM | [28] 0.755 µM | [29] 0.733 µM | [31] 0.861 µM | [32] 0.111 µM | [33] 0.995 µM | [34] 0.851 µM | [35] 0.76 µM | [36] 0.764 µM | [38] 0.622 µM | [39] 1.06 µM | [40] 0.746 µM | [41] 0.611 µM | [43] 1.11 µM | [44] 0.859 µM | [45] 0.918 µM | [46] 1.1 µM | [47] 1.01 µM | [48] 0.759 µM | [49] 0.604 µM

CCCCNC1=C(C(=O)OCC)C(=O)CO1
> 100 µM: [10]
inactive: [50] > 100 µM | [2] > 100 µM | [51] > 100 µM | [3] > 100 µM | [4] > 100 µM | [5] > 100 µM | [6] > 100 µM | [7] > 100 µM | [8] > 100 µM | [52] > 100 µM | [53] > 100 µM | [11] > 100 µM | [12] > 100 µM | [13] > 100 µM | [15] > 100 µM | [16] > 100 µM | [17] > 100 µM | [18] > 100 µM | [19] > 100 µM | [20] > 100 µM | [54] > 100 µM | [55] > 100 µM | [21] > 100 µM | [23] > 100 µM | [56] > 100 µM | [24] > 100 µM | [25] > 100 µM | [26] > 100 µM | [57] > 100 µM | [28] > 100 µM | [29] > 100 µM | [30] > 100 µM | [31] > 100 µM | [32] > 100 µM | [33] > 100 µM | [58] > 100 µM | [34] > 100 µM | [35] > 100 µM | [36] > 100 µM | [37] > 100 µM | [38] > 100 µM | [39] > 100 µM | [40] > 100 µM | [41] > 100 µM | [42] 80.2 µM | [44] > 100 µM | [59] > 100 µM | [45] > 100 µM | [46] > 100 µM | [47] > 100 µM | [48] > 100 µM | [49] > 100 µM

O=[N+]([O-])c1ccc(NSc2ccccc2)cc1
19.8 µM: [10]
inactive: [50] 16.4 µM | [1] 2.37 µM | [2] 29 µM | [51] 33.2 µM | [4] 3.03 µM | [5] 30.7 µM | [6] 24.8 µM | [7] 21 µM | [8] 15.4 µM | [52] 30 µM | [53] 50.6 µM | [9] 25.2 µM | [11] 15 µM | [12] > 100 µM | [13] 33.3 µM | [14] 28.7 µM | [16] 10.7 µM | [17] 23.6 µM | [18] 31.8 µM | [19] 27.8 µM | [20] 13.1 µM | [54] 14.3 µM | [55] 20.5 µM | [23] 10.8 µM | [56] > 100 µM | [25] 45.6 µM | [26] 18.3 µM | [57] 17.2 µM | [28] 34.8 µM | [30] 89.7 µM | [31] 19.8 µM | [32] > 10 µM | [33] 20 µM | [58] 28.2 µM | [34] 27.6 µM | [35] 18.7 µM | [36] 45.3 µM | [37] 42.9 µM | [38] 31.8 µM | [39] 29.9 µM | [40] 17.2 µM | [41] 70.3 µM | [43] 38.3 µM | [60] 10.7 µM | [44] 24.2 µM | [59] 44.7 µM | [45] 29.7 µM | [46] 29.3 µM | [47] 20.1 µM | [48] 26.8 µM | [49] 31.1 µM
